The record followed here is EP4389751A1, “HETEROCYCLIC COMPOUNDS AND USES THEREOF” (Kumquat Biosciences Inc., priority 2021, dated 2024).

Experiment [1] has as its target T1, KRAS protein (His-tagged GDP-loaded G12S 1-169) (Homo sapiens, UniProt P01116, G12S).
T1 construct: His-tagged GDP-loaded G12S 1-169
Description: Covalent modification of KRAS protein, intact-protein LC-MS. It counts as binding. Particulars: 24hrs at room temperature, KRAS protein ~2 µM. The method in brief: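 His-tagged GDP-loaded KRAS 1-169 (~2 µM) incubated with compound 24 h at room temperature, then quenched with formic acid. Intact-protein LC-ESI-MS on C4 column; deconvoluted peak intensities of unmodified and adducted protein give percent covalent modification.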

For the next experiment, the system named is GP2D cells. Description: Cell proliferation assay (CellTiter-Glo), K-Ras G12D cells. Particulars: GP2D cells (K-Ras G12D); read-out: Inhibition of GP2D Cells (IC50). Format: cell-based. Put shortly: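 GP2D (K-Ras G12D) cells seeded in DMEM with 2 mM glutamine and 10% FBS, then dosed next day with a dilution series (e.g., 9-point 3-fold). Viability read by CellTiter-Glo luminescence after about 5 days. IC50 from four-parameter fit.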

The test system of a further experiment is A549 cells. Description: Cell proliferation assay (CellTiter-Glo), K-Ras G12S cells. It counts as cell-based. Particulars: for IC50: Homo sapiens, A549, A549 cells (K-Ras G12S), read-out: Inhibition of A549 Cells (IC50); for ratio of IC50 against a G12D cell line to IC50 against a G12S cell line: K-Ras G12D cell line such as GP2D relative to K-Ras G12S cell line such as A549, greater than 1, 2, 3, 4, 5, 10, 15 or even greater, 8640 min. The method in brief: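 A549 cells (K-Ras G12S) in RPMI-1640 with 10% FBS, seeded in standard or ultra-low-attachment plates and dosed next day with a 10-point 3-fold series. Viability read about 6 days later by CellTiter-Glo luminescence. IC50 from four-parameter fit.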

The target in another experiment is T2, K-Ras G12S (Homo sapiens, UniProt P01116, G12S).
T2 construct: made in house; host or cells: E. coli (e.g., BL21 (DE3))
Description: HTRF assay of the K-Ras / SOS1 interaction. The conditions noted are these: IC50 (against K-Ras G12D) to IC50 (against K-Ras G12S). Format: biochemical. Put shortly: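 GST-K-Ras G12S with anti-GST-Eu donor and His-hSOS1 with anti-6His-XL665 acceptor in ~5 mM HEPES pH 7.4, ~150 mM NaCl, 1 mM DTT, 0.05% BSA, 0.0025% Igepal. Read after ~10 min or longer; IC50 from 665/620 nm ratio, duplicates at 10 µM down to 0.01 µM.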

Like-named read-outs stand apart in the source and are kept apart here.

Turning to `C#Cc1c(F)ccc2cc(O)cc(-c3ncc4c(N5CCOC6(CN(C(=O)n7cncn7)C6)C5)nc(OC[C@@]56CCCN5C[C@H](F)C6)nc4c3F)c12` [Compound A106, (8-(7-(8-ethynyl-7-fluoro-3-hydroxynaphthalen-1-yl)-8-fluoro-2-(((2R,7aS)-2-fluorotetrahydro-1H-pyrrolizin-7a(5H)-yl)methoxy)pyrido[4,3-d]pyrimidin-4-yl)-5-oxa-2,8-diazaspiro[3.5]nonan-2-yl)(1H-1,2,4-triazol-1-yl)methanone], the “% G12S Modification at 24 hr.” value in experiment [1] is “+++ (+++ indicates greater than 20% labelling)”. The IC50 (in general, the concentration that gives 50% inhibition) with GP2D cells was 1000 to 10000 nM; in the experiment on A549 cells (bin ≤ 500 nM), at most 500 nM.
`C#Cc1c(F)ccc2cc(O)cc(-c3ncc4c(N5CCCCC6(CN(C(=O)n7cncn7)C6)C5)nc(OC[C@@]56CCCN5C[C@H](F)C6)nc4c3F)c12` [Compound A128, (6-(7-(8-ethynyl-7-fluoro-3-hydroxynaphthalen-1-yl)-8-fluoro-2-(((2R,7aS)-2-fluorotetrahydro-1H-pyrrolizin-7a(5H)-yl)methoxy)pyrido[4,3-d]pyrimidin-4-yl)-2,6-diazaspiro[3.6]decan-2-yl)(1H-1,2,4-triazol-1-yl)methanone]: the “% G12S Modification at 24 hr.” value in experiment [1] is reported as “+++ (+++ indicates greater than 20% labelling)”. Besides, the concentration for half-maximal inhibition (IC50) is at most 1000 nM in the experiment on GP2D cells and at most 500 nM with A549 cells (bin ≤ 500 nM). Moreover, the “ratio of IC50 against a G12D cell line to IC50 against a G12S cell line” value in the experiment with A549 cells is given as “greater than 1”.
Regarding `C#Cc1c(F)ccc2cc(O)cc(-c3ncc4c(N5CCCC6(CN(C(=O)n7cncn7)C6)C5)nc(OC[C@@]56CCCN5C[C@H](F)C6)nc4c3F)c12` [Compound A133, (6-(7-(8-ethynyl-7-fluoro-3-hydroxynaphthalen-1-yl)-8-fluoro-2-(((2R,7aS)-2-fluorotetrahydro-1H-pyrrolizin-7a(5H)-yl)methoxy)pyrido[4,3-d]pyrimidin-4-yl)-2,6-diazaspiro[3.5]nonan-2-yl)(1H-1,2,4-triazol-1-yl)methanone], the “% G12S Modification at 24 hr.” value in experiment [1] is listed as “+++ (+++ indicates greater than 20% labelling)”. In addition, the IC50 with GP2D cells is 1000 to 10000 nM; in the experiment on A549 cells (bin ≤ 500 nM), at most 500 nM.
`N#Cc1c(N)sc2c(F)ccc(-c3c(Cl)cc4c(N5CCOC6(CN(C(=O)n7cncn7)C6)C5)nc(OC[C@@]56CCCN5C[C@H](F)C6)nc4c3F)c12` [Compound A162, 4-(4-(2-(1H-1,2,4-triazole-1-carbonyl)-5-oxa-2,8-diazaspiro[3.5]nonan-8-yl)-6-chloro-8-fluoro-2-(((2R,7aS)-2-fluorotetrahydro-1H-pyrrolizin-7a(5H)-yl)methoxy)quinazolin-7-yl)-2-amino-7-fluorobenzo[b]thiophene-3-carbonitrile]: the “Ratio of IC50 KRAS G12D vs. IC50 KRAS G12S” value at K-Ras G12S was “A (A: indicates that the ratio of IC50 against KrasG12D vs. IC50 against KrasG12S is 1-fold or greater)”. In experiment [1], the “% G12S Modification at 24 hr.” value is “+++ (+++ indicates greater than 20% labelling)”. Also, in the experiment with A549 cells (bin ≤ 500 nM), the IC50 is at most 500 nM.
As for `N#Cc1c(N)sc2c(F)ccc(-c3c(Cl)cc4c(N5CC(F)(F)C6(CN(C(=O)n7cncn7)C6)C5)nc(OC[C@@]56CCCN5C[C@H](F)C6)nc4c3F)c12` [Compound A199, 2-amino-4-(6-chloro-4-(8,8-difluoro-2-(1H-1,2,4-triazole-1-carbonyl)-2,6-diazaspiro[3.4]octan-6-yl)-8-fluoro-2-(((2R,7aS)-2-fluorotetrahydro-1H-pyrrolizin-7a(5H)-yl)methoxy)quinazolm-7-yl)-7-fluorobenzo[b]thiophene-3-carbonitrile], at K-Ras G12S, the “Ratio of IC50 KRAS G12D vs. IC50 KRAS G12S” value is on record as “A (A: indicates that the ratio of IC50 against KrasG12D vs. IC50 against KrasG12S is 1-fold or greater)”. Further, in experiment [1], the “% G12S Modification at 24 hr.” value is on record as “+++ (+++ indicates greater than 20% labelling)”. Further, in the experiment on A549 cells, the “ratio of IC50 against a G12D cell line to IC50 against a G12S cell line” value is on record as “greater than 1”.
As for `Nc1nc2c(-c3c(Cl)cc4c(N5CCC6(CC5)CN(C(=O)n5cncn5)C6)nc(OC[C@@]56CCCN5C[C@H](F)C6)nc4c3F)ccc(F)c2s1` [Compound A233, (7-(7-(2-amino-7-fluorobenzo[d]thiazol-4-yl)-6-chloro-8-fluoro-2-(((2R,7aS)-2-fluorotetrahydro-1H-pyrrolizin-7a(5H)-yl)methoxy)quinazolin-4-yl)-2,7-diazaspiro[3.5]nonan-2-yl)(1H-1,2,4-triazol-1-yl)methanone], the “Ratio of IC50 KRAS G12D vs. IC50 KRAS G12S” value at K-Ras G12S was “A (A: indicates that the ratio of IC50 against KrasG12D vs. IC50 against KrasG12S is 1-fold or greater)”. Further, the IC50 in the experiment with GP2D cells is 1000 to 10000 nM; in the experiment with A549 cells (bin 500 nM to 5 µM), 500 to 5000 nM.
For `Nc1nc2c(-c3c(Cl)cc4c(N5CC6CCC(C5)N6C(=O)n5ccnc5Cl)nc(OC[C@@]56CCCN5C[C@H](F)C6)nc4c3F)ccc(F)c2s1` [Compound A242, (3-(7-(2-amino-7-fluorobenzo[d]thiazol-4-yl)-6-chloro-8-fluoro-2-(((2R,7aS)-2-fluorotetrahydro-1H-pyrrolizin-7a(5H)-yl)methoxy)quinazolin-4-yl)-3,8-diazabicyclo[3.2.1]octan-8-yl)(2-chloro-1H-imidazol-1-yl)methanone], in that order: “A (A: indicates that the ratio of IC50 against KrasG12D vs. IC50 against KrasG12S is 1-fold or greater)”, at most 1000 nM and 500 to 5000 nM.
The corresponding values for `N#Cc1ccn(C(=O)N2C3CCC2CN(c2nc(OC[C@@]45CCCN4C[C@H](F)C5)nc4c(F)c(-c5ccc(F)c6sc(N)nc56)c(Cl)cc24)C3)n1` [Compound A245, 1-(3-(7-(2-amino-7-fluorobenzo[d]thiazol-4-yl)-6-chloro-8-fluoro-2-(((2R,7aS)-2-fluorotetrahydro-1H-pyrrolizin-7a(5H)-yl)methoxy)quinazolin-4-yl)-3,8-diazabicyclo[3.2. 1]octane-8-carbonyl)-1H-pyrazole-3-carbonitrile] are “A (A: indicates that the ratio of IC50 against KrasG12D vs. IC50 against KrasG12S is 1-fold or greater)”, at most 1000 nM and 500 to 5000 nM.
In the case of `N#Cc1c(N)sc2c(F)ccc(-c3c(Cl)cc4c(N5CC6CCC(C5)N6C(=O)n5cncn5)nc(OC[C@@]56CCCN5C[C@H](F)C6)nc4c3F)c12` [Compound A260, 4-(4-(8-(1H-1,2,4-triazole-1-carbonyl)-3,8-diazabicyclo[3.2.1]octan-3-yl)-6-chloro-8-fluoro-2-(((2R,7aS)-2-fluorotetrahydro-1H-pyrrolizin-7a(5H)-yl)methoxy)quinazolin-7-yl)-2-amino-7-fluorobenzo[b]thiophene-3-carbonitrile], the “Ratio of IC50 KRAS G12D vs. IC50 KRAS G12S” value on K-Ras G12S was “A (A: indicates that the ratio of IC50 against KrasG12D vs. IC50 against KrasG12S is 1-fold or greater)”. Besides, the IC50 is at most 1000 nM in the experiment on GP2D cells and at most 500 nM with A549 cells (bin ≤ 500 nM).
On to `Nc1nc2c(-c3c(Cl)cc4c(N5CC6CCC(C5)N6C(=O)n5ccnc5)nc(OC[C@@]56CCCN5C[C@H](F)C6)nc4c3F)ccc(F)c2s1` [Compound A289, (3-(7-(2-amino-7-fluorobenzo[d]thiazol-4-yl)-6-chloro-8-fluoro-2-(((2R,7aS)-2-fluorotetrahydro-1H-pyrrolizin-7a(5H)-yl)methoxy)quinazolin-4-yl)-3,8-diazabicyclo[3.2.1]octan-8-yl)(1H-imidazol-1-yl)methanone], for which the “Ratio of IC50 KRAS G12D vs. IC50 KRAS G12S” value at K-Ras G12S was “A (A: indicates that the ratio of IC50 against KrasG12D vs. IC50 against KrasG12S is 1-fold or greater)”. Besides, the IC50 with GP2D cells was at most 1000 nM; with A549 cells (bin 500 nM to 5 µM), 500 to 5000 nM.
